System: NCI-H196 complex spheroid viability
Experiment: Anticancer human tumor NCI-H196 cell line growth inhibition [LSD1];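 further: spheroids exposed to agents for 7 days before readout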;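 on viability, T/C: 100% = DMSO vehicle control viability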
Settings: for IC50: curve of first compound; for viability, T/C: stronger effect = lower value; active means viability on the fitted dose curve at most 10% of control; inactive means the rest
Summary of the method: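 Multicellular complex spheroids of tumor cells with human endothelial cells (HUVEC) and mesenchymal stem cells; the LSD1 inhibitor iadademstat was combined with standard-of-care or investigational agents. Top concentration at or near clinical Cmax, half-log dilutions; final DMSO ≤0.25%.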

CC1(C)CCC(CN2CCN(c3ccc(C(=O)NS(=O)(=O)c4ccc(NCC5CCOCC5)c([N+](=O)[O-])c4)c(Oc4cnc5[nH]ccc5c4)c3)CC2)=C(c2ccc(Cl)cc2)C1 + NC1CCC(NC2CC2c2ccccc2)CC1
6.02 µM: IC50 (second compound 10 µM)
5.19 µM: IC50 (second compound 0.316 µM)
5.6 µM: IC50 (second compound 3.16 µM)
5.15 µM: IC50 (second compound 0.1 µM)
inactive: viability, T/C (second compound 0.1 µM, first compound 0.0316 µM) 98.8% | viability, T/C (second compound 0.1 µM, first compound 0.1 µM) 104% | viability, T/C (second compound 0.1 µM, first compound 0.316 µM) 96.8% | viability, T/C (second compound 0.1 µM, first compound 1 µM) 97.8% | viability, T/C (second compound 0.1 µM, first compound 3.16 µM) 76% | viability, T/C (second compound 0.1 µM, first compound 10 µM) 14.6% | viability, T/C (second compound 0.316 µM, first compound 0.0316 µM) 107% | viability, T/C (second compound 0.316 µM, first compound 0.1 µM) 106% | viability, T/C (second compound 0.316 µM, first compound 0.316 µM) 98% | viability, T/C (second compound 0.316 µM, first compound 1 µM) 98% | viability, T/C (second compound 0.316 µM, first compound 3.16 µM) 78.3% | viability, T/C (second compound 0.316 µM, first compound 10 µM) 13.2% | viability, T/C (second compound 1 µM, first compound 0.0316 µM) 101% | viability, T/C (second compound 1 µM, first compound 0.1 µM) 103% | viability, T/C (second compound 1 µM, first compound 0.316 µM) 101% | viability, T/C (second compound 1 µM, first compound 1 µM) 106% | viability, T/C (second compound 1 µM, first compound 3.16 µM) 89.1% | viability, T/C (second compound 1 µM, first compound 10 µM) 16.5% | viability, T/C (second compound 3.16 µM, first compound 0.0316 µM) 109% | viability, T/C (second compound 3.16 µM, first compound 0.1 µM) 104% | viability, T/C (second compound 3.16 µM, first compound 0.316 µM) 95.4% | viability, T/C (second compound 3.16 µM, first compound 1 µM) 102% | viability, T/C (second compound 3.16 µM, first compound 3.16 µM) 82.8% | viability, T/C (second compound 3.16 µM, first compound 10 µM) 16.6% | viability, T/C (second compound 10 µM, first compound 0.0316 µM) 104% | viability, T/C (second compound 10 µM, first compound 0.1 µM) 101% | viability, T/C (second compound 10 µM, first compound 0.316 µM) 99.2% | viability, T/C (second compound 10 µM, first compound 1 µM) 103% | viability, T/C (second compound 10 µM, first compound 3.16 µM) 86.4% | viability, T/C (second compound 10 µM, first compound 10 µM) 21%
5.88 µM: IC50 (second compound 1 µM)

CCN(c1cc(-c2ccc(CN3CCOCC3)cc2)cc(C(=O)NCc2c(C)cc(C)[nH]c2=O)c1C)C1CCOCC1 + NC1CCC(NC2CC2c2ccccc2)CC1
inactive: viability, T/C (second compound 0.1 µM, first compound 0.00949 µM) 100% | viability, T/C (second compound 0.1 µM, first compound 0.03 µM) 95.6% | viability, T/C (second compound 0.1 µM, first compound 0.0949 µM) 93.1% | viability, T/C (second compound 0.1 µM, first compound 0.3 µM) 103% | viability, T/C (second compound 0.1 µM, first compound 0.949 µM) 96.4% | viability, T/C (second compound 0.1 µM, first compound 3 µM) 101% | viability, T/C (second compound 0.316 µM, first compound 0.00949 µM) 99.5% | viability, T/C (second compound 0.316 µM, first compound 0.03 µM) 93.8% | viability, T/C (second compound 0.316 µM, first compound 0.0949 µM) 101% | viability, T/C (second compound 0.316 µM, first compound 0.3 µM) 100% | viability, T/C (second compound 0.316 µM, first compound 0.949 µM) 104% | viability, T/C (second compound 0.316 µM, first compound 3 µM) 110% | viability, T/C (second compound 1 µM, first compound 0.00949 µM) 92.5% | viability, T/C (second compound 1 µM, first compound 0.03 µM) 93% | viability, T/C (second compound 1 µM, first compound 0.0949 µM) 98.7% | viability, T/C (second compound 1 µM, first compound 0.3 µM) 95.2% | viability, T/C (second compound 1 µM, first compound 0.949 µM) 99.6% | viability, T/C (second compound 1 µM, first compound 3 µM) 103% | viability, T/C (second compound 3.16 µM, first compound 0.00949 µM) 87.8% | viability, T/C (second compound 3.16 µM, first compound 0.03 µM) 91.4% | viability, T/C (second compound 3.16 µM, first compound 0.0949 µM) 95.3% | viability, T/C (second compound 3.16 µM, first compound 0.3 µM) 95.6% | viability, T/C (second compound 3.16 µM, first compound 0.949 µM) 91.6% | viability, T/C (second compound 3.16 µM, first compound 3 µM) 99.9% | viability, T/C (second compound 10 µM, first compound 0.00949 µM) 104% | viability, T/C (second compound 10 µM, first compound 0.03 µM) 93.3% | viability, T/C (second compound 10 µM, first compound 0.0949 µM) 94.6% | viability, T/C (second compound 10 µM, first compound 0.3 µM) 105% | viability, T/C (second compound 10 µM, first compound 0.949 µM) 86.7% | viability, T/C (second compound 10 µM, first compound 3 µM) 101%
> 3 µM: IC50 (second compound 0.1 µM) | IC50 (second compound 0.316 µM) | IC50 (second compound 1 µM) | IC50 (second compound 3.16 µM) | IC50 (second compound 10 µM)
